# Assay results as given in ChEMBL document CHEMBL4819019, “Design, synthesis, antibacterial activity and toxicity of novel quaternary ammonium compounds based on pyridoxine and fatty acids” (Eur J Med Chem, 2021).
# Calls of active or inactive are those of the source. The rule behind the calls is not given here.
# Tests used:
# Escherichia coli [1] = assay: Antibacterial activity against clinical isolate Escherichia coli 718 measured after 24 hrs by broth microdilution method; type: functional
# [2] = test system: Staphylococcus intermedius; assay: Antibacterial activity against clinical isolate methicillin-resistant Staphylococcus intermedius 1143 measured after 24 hrs by broth microdilution method; type: functional
# Klebsiella pneumoniae = assay: Antibacterial activity against clinical isolate Klebsiella pneumoniae 1813 measured after 24 hrs by broth microdilution method; type: functional
# [3] = Genotoxicity in Salmonella typhimurium TA1537 assessed as number of revertant by Ames spot test relative to solvent control; type: toxicity; conditions: salmonella enterica subsp. enterica serovar typhimurium
# Escherichia coli [4] = assay: Antibacterial activity against Escherichia coli assessed as fold increase in MIC after 4 passages by serial dilution method; type: functional, organism-based; conditions: time 24.0 hrs
# [5] = Antibiofilm activity against biofilm-embedded Staphylococcus aureus/Pseudomonas aeruginosa assessed as reduction in viable cells upto 512 mg/L measured after 24 hrs by drop plate based dual species biofilm assay; type: functional, cell-based; conditions: dose mg/L <=512, time 24.0 hrs
# Bacillus subtilis = assay: Antibacterial activity against Bacillus subtilis 168 measured after 24 hrs by broth microdilution method; type: functional
# [6] = Genotoxicity in Salmonella typhimurium TA1535/pSK1002 assessed as DNA-damage activity by measuring beta-galactosidase activity at 750 ug/ml measured by SOS-chromotest relative to solvent control; type: toxicity; conditions: salmonella enterica subsp. enterica serovar typhimurium; dose 750 µg/ml
# Enterococcus faecalis [7] = assay: Antibacterial activity against clinical isolate Enterococcus faecalis 3063 measured after 24 hrs by broth microdilution method; type: functional
# Staphylococcus aureus [8] = assay: Antibacterial activity against Staphylococcus aureus ATCC 29213 measured after 24 hrs by broth microdilution method; type: functional
# Pseudomonas sp. = assay: Antibacterial activity against clinical isolate Pseudomonas sp. 5 measured after 24 hrs by broth microdilution method; type: functional
# Staphylococcus aureus [9] = assay: Antibacterial activity against clinical isolate methicillin-resistant Staphylococcus aureus 1053 measured after 24 hrs by broth microdilution method; type: functional
# [10] = Acute toxicity in C57BL/6CBA mouse assessed pale gastric mucosa at 2000 mg/kg, po after 7 days; type: organism-based; conditions: in vivo, 168 h, time 7 day
# Staphylococcus aureus [11] = assay: Antibacterial activity against Staphylococcus aureus assessed as fold increase in MIC after 8 passages by serial dilution method; type: functional, organism-based; conditions: time 24.0 hrs
# Micrococcus luteus [12] = assay: Antibacterial activity against Micrococcus luteus clinical isolate measured after 24 hrs by broth microdilution method; type: functional
# Staphylococcus aureus [13] = assay: Antibacterial activity against clinical isolate methicillin-resistant Staphylococcus aureus 1131 measured after 24 hrs by broth microdilution method; type: functional
# Pseudomonas aeruginosa [14] = assay: Antibiofilm activity against biofilm-embedded Pseudomonas aeruginosa assessed as reduction in log CFU at 1 to 32 times of MBC measured after 24 hrs by drop plate assay; type: functional, organism-based
# Klebsiella sp. = assay: Antibacterial activity against clinical isolate Klebsiella sp. 11 measured after 24 hrs by broth microdilution method; type: functional
# [15] = Genotoxicity in Salmonella typhimurium TA98 assessed as number of revertant by Ames spot test relative to solvent control; type: toxicity; conditions: salmonella enterica subsp. enterica serovar typhimurium
# Serratia marcescens = assay: Antibacterial activity against clinical isolate Serratia marcescens 1966 measured after 24 hrs by broth microdilution method; type: functional
# [16] = Cytotoxicity against human mesenchymal stem cells assessed as cell viability measured after 72 hrs by MTT assay; type: cell-based
# [17] = Genotoxicity in Salmonella typhimurium TA1535/pSK1002 assessed as DNA-damage activity by measuring beta-galactosidase activity at 15 ug/ml measured by SOS-chromotest relative to solvent control; type: toxicity; conditions: salmonella enterica subsp. enterica serovar typhimurium; dose 15 µg/ml
# Cell membrane [18] = assay: Induction of cell membrane damage in Staphylococcus aureus assessed as decrease in flourescence measured for 35 mins with 5 min interval by DioC2(3) based flourescence method
# Enterococcus faecalis [19] = assay: Antibacterial activity against clinical isolate Enterococcus faecalis 23 measured after 24 hrs by broth microdilution method; type: functional
# Staphylococcus aureus [20] = assay: Antibacterial activity against clinical isolate methicillin-resistant Staphylococcus aureus 983 measured after 24 hrs by broth microdilution method; type: functional
# Acinetobacter sp. = assay: Antibacterial activity against clinical isolate Acinetobacter sp. 3 measured after 24 hrs by broth microdilution method; type: functional
# Cell membrane [21] = assay: Induction of cell membrane damage in Escherichia coli assessed as decrease in flourescence measured for 35 mins with 5 min interval by DioC2(3) based flourescence method
# [22] = Lipophilicity, logP of the compound; type: physicochemical; conditions: octanol/water
# [23] = Genotoxicity in Salmonella typhimurium TA1535/pSK1002 assessed as DNA-damage activity by measuring beta-galactosidase activity at 150 ug/ml measured by SOS-chromotest relative to solvent control; type: toxicity; conditions: salmonella enterica subsp. enterica serovar typhimurium; dose 150 µg/ml
# Proteus sp. = assay: Antibacterial activity against clinical isolate Proteus sp. 17 measured after 24 hrs by broth microdilution method; type: functional; conditions: Proteus sp. (in: enterobacteria)
# [24] = Genotoxicity in Salmonella typhimurium TA1535 assessed as number of revertant by Ames spot test relative to solvent control; type: toxicity; conditions: salmonella enterica subsp. enterica serovar typhimurium
# Moraxella = assay: Antibacterial activity against clinical isolate Moraxella 765 measured after 24 hrs by broth microdilution method; type: functional
# Micrococcus luteus [25] = assay: Antibiofilm activity against biofilm-embedded Micrococcus luteus assessed as reduction in log CFU at 1 to 32 times of MBC measured after 24 hrs by drop plate assay; type: functional, organism-based
# [26] = Acute toxicity in topically treated C57BL/6CBA mouse measured upto 14 days; conditions: in vivo, topical or ocular, time <=14 day
# [27] = Cytotoxicity against human skin fibroblasts assessed as cell viability measured after 72 hrs by MTT assay; type: cell-based, Fibroblast
# [28] = Acute toxicity in topically treated C57BL/6CBA mouse assessed as death measured at 2500 mg/kg treated as single topically measured after 14 days; type: organism-based; conditions: in vivo, topical_or_ocular, 336 h, time 14 day
# Escherichia coli [29] = assay: Antibacterial activity against Escherichia coli MG 1655 measured after 24 hrs by broth microdilution method; type: functional
# Staphylococcus aureus [30] = assay: Antibiofilm activity against biofilm-embedded Staphylococcus aureus assessed as reduction in log CFU at 1 to 32 times of MBC measured after 24 hrs by drop plate assay; type: functional, organism-based
# [31] = Genotoxicity in Salmonella typhimurium TA100 assessed as number of revertant by Ames spot test relative to solvent control; type: toxicity; conditions: salmonella enterica subsp. enterica serovar typhimurium
# Staphylococcus aureus [32] = assay: Antibacterial activity against clinical isolate methicillin-resistant Staphylococcus aureus 713 measured after 24 hrs by broth microdilution method; type: functional
# [33] = Cytotoxicity against human HEK293 cells assessed as cell viability measured after 72 hrs by MTT assay; type: cell-based
# Staphylococcus aureus [34] = assay: Antibacterial activity against clinical isolate methicillin-resistant Staphylococcus aureus 1065 measured after 24 hrs by broth microdilution method; type: functional
# Pseudomonas aeruginosa [35] = assay: Antibacterial activity against Pseudomonas aeruginosa ATCC 27853 measured after 24 hrs by broth microdilution method; type: functional
# [36] = Acute toxicity in po dosed C57BL/6CBA mouse measured upto 7 days; type: organism-based; conditions: in vivo, time <=7 day
# Staphylococcus aureus [37] = assay: Antibacterial activity against clinical isolate Staphylococcus aureus 25 measured after 24 hrs by broth microdilution method; type: functional
# [38] = test system: Staphylococcus intermedius; assay: Antibacterial activity against clinical isolate methicillin-resistant Staphylococcus intermedius 1061 measured after 24 hrs by broth microdilution method; type: functional
# [39] = test system: Staphylococcus ureilyticus; assay: Antibacterial activity against clinical isolate Staphylococcus ureilyticus 1972 measured after 24 hrs by broth microdilution method; type: functional
# [40] = Acute toxicity in C57BL/6CBA mouse assessed as pale kidneys at 2000 mg/kg, po after 7 days; type: organism-based; conditions: in vivo, 168 h, time 7 day
# Escherichia coli [41] = assay: Antibiofilm activity against biofilm-embedded Escherichia coli assessed as reduction in log CFU at 1 to 32 times of MBC measured after 24 hrs by drop plate assay; type: functional, organism-based
# [42] = Antibiofilm activity against biofilm-embedded Staphylococcus aureus/Escherichia coli assessed as reduction in viable cells upto 512 mg/L measured after 24 hrs by drop plate based dual species biofilm assay; type: functional, cell-based; conditions: dose mg/L <=512, time 24.0 hrs
# [43] = Genotoxicity in Salmonella typhimurium TA1535/pSK1002 assessed as DNA-damage activity by measuring beta-galactosidase activity at 7.5 ug/ml measured by SOS-chromotest relative to solvent control; type: toxicity; conditions: salmonella enterica subsp. enterica serovar typhimurium; dose 7.5 µg/ml
# [44] = Genotoxicity in Salmonella typhimurium TA1535/pSK1002 assessed as DNA-damage activity by measuring beta-galactosidase activity at 75 ug/ml measured by SOS-chromotest relative to solvent control; type: toxicity; conditions: salmonella enterica subsp. enterica serovar typhimurium; dose 75 µg/ml
# Pseudomonas aeruginosa [45] = assay: Antibacterial activity against clinical isolate Pseudomonas aeruginosa 1945 measured after 24 hrs by broth microdilution method; type: functional
# [46] = Acute toxicity in C57BL/6CBA mouse assessed as necropsy measured at 2500 mg/kg treated as single topically measured after 14 days; type: organism-based; conditions: in vivo, topical_or_ocular, 336 h, time 14 day
compound,measurement,setting,value
CCCCCCCCCCCCCC(=O)NCC[N+](C)(C)Cc1nc(C)c2c(c1CO)COC(C)(C)O2.[Cl-],MIC,Escherichia coli [1],16 µg/mL
same,MIC,[2],4 µg/mL
same,MIC,Klebsiella pneumoniae,2 µg/mL
same,Ratio,[3],0.01
same,MIC,Escherichia coli [4],Active
same,Activity,[5],inactive
same,MIC,Bacillus subtilis,1 µg/mL
same,Ratio,[6],0.4
same,MIC,Enterococcus faecalis [7],1 µg/mL
same,MIC,Staphylococcus aureus [8],1 µg/mL
same,MIC,Pseudomonas sp.,32 µg/mL
same,MIC,Staphylococcus aureus [9],4 µg/mL
same,Activity,[10],Toxic
same,MIC,Staphylococcus aureus [11],Active
same,MIC,Micrococcus luteus [12],2 µg/mL
same,MIC,Staphylococcus aureus [13],4 µg/mL
same,Activity,Pseudomonas aeruginosa [14],Active
same,MIC,Klebsiella sp.,32 µg/mL
same,Ratio,[15],1.9
same,MIC,Serratia marcescens,> 64 µg/mL
same,CC50 at 72 h,[16],1.74 µg/mL
same,Ratio,[17],1.8
same,Activity,Cell membrane [18],Dose-Dependent Effect
same,MIC,Enterococcus faecalis [19],1 µg/mL
same,MIC,Staphylococcus aureus [20],32 µg/mL
same,MIC,Acinetobacter sp.,32 µg/mL
same,Activity,Cell membrane [21],Dose-Dependent Effect
same,logP,[22],0.73
same,Ratio,[23],0.7
same,MIC,Proteus sp.,> 64 µg/mL
same,Ratio,[24],1.1
same,MIC,Moraxella,64 µg/mL
same,Activity,Micrococcus luteus [25],Active
same,LD50 at 336 h,[26],> 2500 mg/kg
same,CC50 at 72 h,[27],3.21 µg/mL
same,Activity,[28],Non-Toxic
same,MIC,Escherichia coli [29],8 µg/mL
same,Activity,Staphylococcus aureus [30],Active
same,Ratio,[31],1.7
same,MIC,Staphylococcus aureus [32],4 µg/mL
same,CC50 at 72 h,[33],1.32 µg/mL
same,MIC,Staphylococcus aureus [34],2 µg/mL
same,MIC,Pseudomonas aeruginosa [35],> 64 µg/mL
same,LD50 at 168 h,[36],> 2000 mg/kg
same,MIC,Staphylococcus aureus [37],2 µg/mL
same,MIC,[38],4 µg/mL
same,MIC,[39],> 64 µg/mL
same,Activity,[40],Toxic
same,Activity,Escherichia coli [41],Active
same,Activity,[42],inactive
same,Ratio,[43],1.6
same,Ratio,[44],0.7
same,MIC,Pseudomonas aeruginosa [45],32 µg/mL
same,Activity,[46],Non-Toxic
[H]/N=C(\N/C(=N/[H])NCCCCCCNC(=N)NC(=N)Nc1ccc(Cl)cc1)Nc1ccc(Cl)cc1 [CHLORHEXIDINE],MIC,Bacillus subtilis,1 µg/mL
same,MIC,Staphylococcus aureus [8],2 µg/mL
same,MIC,Micrococcus luteus [12],0.5 µg/mL
same,CC50 at 72 h,[16],5.12 µg/mL
same,logP,[22],4.51
same,CC50 at 72 h,[27],6.32 µg/mL
same,MIC,Escherichia coli [29],1 µg/mL
same,CC50 at 72 h,[33],7.28 µg/mL
same,MIC,Pseudomonas aeruginosa [35],4 µg/mL
same,LD50 at 168 h,[36],1260 mg/kg
